In paper PMC9324262, “Selective CDK9 Inhibition by Natural Compound Toyocamycin in Cancer Cells” (Cancers, 2022):

Assays:
[1] = test system: YB5 cells; assay: GFP reactivation in YB5 cell-based system (flow cytometry); parameters: species or system human; conditions: for GFP expression in YB5 cells, adenosine analogues: Figure S2; for GFP+ cells: alone, screen control
Description: YB5 cells are derived from SW48 cells (human colon cancer cell line), and contain a single insertion of a DNA hypermethylated cytomegalovirus (CMV) promoter driving the green fluorescent protein (GFP) gene, as previously described. YB5 cells are cultured in L-15 medium supplemented with 10% fetal bovine serum and grown in log-phase in 1% CO2 atmosphere. YB5 cells were authenticated by DNA fingerprinting prior to drug screening and validation experiments. GFP expression in YB5 cells is silenced in >99.9% of the cells due to the CMV promoter DNA hypermethylation and repressive chromatin marks around the transcriptional start site. The human HCT116 colon cancer-derived GFP-reporter system, comprising a GFP gene under the control of an endogenously hypermethylated SFRP1 gene promoter, was kindly provided by Dr. Stephen Baylin (Johns Hopkins University). These cells are cultured in McCoy’s 5A medium supplemented with 10% fetal bovine serum and grown in log-phase in 5% CO2 atmosphere at 37 °C. The 451-Lu-BR melanoma cells were a kind gift from Dr. Raza Zaidi (Fels Institute for Cancer Research and Molecular Biology, Temple University School of Medicine, Philadelphia). These cells are derived from parental 451-LU cells that have acquired resistance to BRAF inhibitors. The 451-Lu-BR cells were cultured at 37 °C in Dulbecco’s Modified Eagle Medium (DMEM) supplemented with 10% fetal bovine serum, L-alanyl-L-glutamine (2 mM), and gentamycin (50 µg/mL) in 5% CO2 at 37 °C. The natural drug library (natural product set II) containing 120 compounds was obtained from the National Cancer Institute Developmental Therapeutics Program. Natural compounds were dissolved in DMSO (10 mM) in 96-well plates that were kept at −80°C until use. Toyocamycin, analogues of toyocamycin (sangivamycin, tubercidin, 3-deaza-adenosine, DZNep), CDK inhibitors, and epigenetic drugs (decitabine, SAHA, trichostatin A, depsipeptide) were purchased from Sigma-Aldrich (St. Louis, MO, USA,) for validation studies, dissolved in DMSO, and kept at −80 °C until use.
YB5 cells were seeded at 30,000 cell/mL in 96-well plates (6000 cells/well) and treated 3 days after seeding. Cells were exposed to 120 natural compounds in 5 different experimental conditions: (1) 72 h exposure at 10 µM followed by 24 h recovery period prior to analysis; (2) 24 h treatment at 50 µM prior to analysis; (3) 72 h exposure at 10 µM of the compound library followed by 24 h treatment with HDAC inhibitor trichostatin A (200 nM) prior to analysis; (4) 72 h exposure at 10 µM in simultaneous combination with decitabine (50 nM) followed by 24 h recovery period prior to analysis; and (5) 72 h treatment with decitabine (50 nM) followed by 24 h exposure with the natural compound library (50 µM) prior to analysis. The scheme of different dose schedules is shown Figure S1A. During screening, drugs and cell culture media were replaced every day. To ensure the quality and the reproducibility of the screen, each 96-well plate was designed to include 80 natural compounds, 4 untreated wells, 4 wells treated with decitabine (50 nM, 72 h), 4 wells treated with trichostatin A (200 nM, 24 h), and their combination with decitabine (50 nM, 72 h) followed by trichostatin A treatment (200 nM, 24 h) prior to flow cytometry analysis. The percentage of GFP-expressing cells in control wells (untreated or treated with known epigenetic drugs) was measured and was reproducible between different plates.
After treatment, YB5 cells were trypsinized for 15 min and resuspended in L-15 media containing propidium iodide (PI) to stain dead cells. GFP expression and PI staining were quantified by a BD LSR II flow cytometer (BD Biosciences, San Jose, CA, USA). A maximum of 10,000 cells was analyzed per well. Validations were performed using a Millipore Guava flow cytometer (EMD, Millipore, Burlington, MA, USA). […]

[2] = test system: CDK9; conditions: cited from earlier work
[3] = test system: RNA-Pol II Ser2-P; assay: Western blot, RNA Pol II and phospho-Pol II Ser2; format: cell-based, human; conditions: HCT116, 1–10 µM, 16 h
Description: YB5 cells were harvested in 50 mM Tris-HCl, 1% NP-40, 1 mM EDTA, 1 mM EGTA, 0.25% sodium deoxycholate, 150 mM NaCl, 50 mM sodium fluoride, and 1X Complete protease cocktail (Roche, Basel, Switzerland) with 1 mM PMSF. The total protein concentration was measured in all samples by standard BCA protocol (Pierce-23225, Thermo Scientific, Waltham, MA, USA) to ensure that an equal amount of protein was added to each sample. Protein extracts were run on 12% SDS–PAGE precast gels (Bio-Rad, Hercules, CA, USA, 345-0118). Proteins were transferred to polyvinylidene difluoride (PVDF) membranes in 10 mmol/L CAPS (pH-11) containing 10% methanol and detected by using specific primary antibodies, horseradish peroxidase–conjugated secondary antibodies (GE Healthcare, Chicago, IL, USA), and an enhanced chemiluminescence reagent (Pierce). PVDF membranes were incubated with specific primary antibodies (actin—A5441, Sigma, St. Louis, MO, USA; HA-tagged—H9608, Sigma; FLAG-tagged—F3165, Sigma). FLAG- and HA-tagged CDK9 plasmids were a generous gift from Dr Bassel E. Sawaya (Temple University). For CDK9 target modulation, HCT116 colon cancer cells were treated with toyocamycin or known CDK9 inhibitor BAY1251152 (Selleckchem, Houston, TX, USA). Whole cell extracts were obtained by lysing cells with 25 mM Tris (pH 7.3) and 1% sodium dodecyl sulfate (SDS). After sonication, total protein concentrations were determined using Bradford protein assay. The following primary antibodies were used to investigate the effect of CDK9 inhibition: Pol II against the N-term region (sc-55492, Santa Cruz, Dallas, TX, USA), Pol II against the C-term region (39097, Active motif, Carlsbad, CA, USA), Pol II phospho CTD ser2 (14-9802-82, Invitrogen, Waltham, MA, USA), Rb (ab181616, Abcam, Cambridge, UK), Rb phospho T826 (ab133446, Abcam, Cambridge, UK), CDK9 (ab39098, Abcam, Cambridge, UK), and actin (ab1801, Abcam, Cambridge, UK). Images were acquired with an Image Quant LAS4000 device from GE Healthcare Life Sciences. Band intensity quantifications were calculated using ImageJ software, edition 1.53 [27].

[4] = test system: YB5 cells; assay: anchorage-dependent clonogenic assay; format: cell-based, human; conditions: 10–50 nM, 72 h treatment, 2 weeks drug-free
Description: Two hundred YB5 cells were seeded per well in 6-well plates. On the following day, YB5 cells were treated with toyocamycin for 24 h or 72 h. Decitabine (10–50 nM for 72 h) was used as a positive control for the loss of clonogenic potential. Drugs and media were replaced each day. After treatment, media was removed. YB5 cells were grown in drug-free media for 2 weeks to allow visible colony formation prior to colony staining (0.5% methylene blue in 50% methanol). YB5 colonies were counted manually.

Structure (SMILES): Nc1nccc2c1ncn2[C@@H]1O[C@H](CO)[C@@H](O)[C@H]1O [3-deaza-adenosine]
- GFP expression in YB5 cells, adenosine analogues ([1]; 24 h): only sangivamycin induced GFP expression

Structure (SMILES): CC(=O)N[C@@H]1CCC[C@H](C(=O)Nc2cc(-c3cnn4c3CC(C)(C)C4)c(Cl)cn2)C1 [AZD-4573]
- CDK9 inhibition IC50 values [2]: low nanomolar range

Structure (SMILES): COc1cc(F)ccc1-c1cc(Nc2cc(CS(C)(=N)=O)ccn2)ncc1F (stereo not shown) [BAY1251152]
- RNA Pol II band intensity, Pol II C-terminal antibody [3]: reduced the RNA Pol II band intensity
- RNA-Pol II ser 2 phosphorylation [3]: significantly reduced

Structure (SMILES): Nc1n[nH]c(N)c1N=Nc1ccc(O)cc1 [CAN-508]
- CDK9 inhibition IC50 values [2]: low nanomolar range

Structure (SMILES): Nc1nccc2c1ncn2C1C=C(CO)C(O)C1O (stereo not shown) [DZNep]
- GFP expression in YB5 cells, adenosine analogues ([1]; 24 h): only sangivamycin induced GFP expression

Structure (SMILES): COc1ccccc1-c1cc(Nc2cccc(CS(N)(=O)=O)c2)ncn1 [LDC000067]
- CDK9 inhibition IC50 values [2]: low nanomolar range

Structure (SMILES): Nc1nc(N[C@H]2C[C@@H]3CC[C@H]2C3)sc1C(=O)c1ccccc1[N+](=O)[O-] [MC180295]
- GFP fluorescence, % of YB5 cells ([1]; 500 nM, 48 h): about 10%

Structure (SMILES): CC(C)(C)c1cnc(CSc2cnc(NC(=O)C3CCNCC3)s2)o1 [SNS-032]
- CDK9 inhibition IC50 values [2]: low nanomolar range

Structure (SMILES): Nc1ncn([C@H]2C[C@H](O)[C@@H](CO)O2)c(=O)n1 [decitabine, 5-aza-2′-deoxycytidine]
- GFP+ cells ([1]; 50 nM, 72 h): about 15%
- colony formation [4]: still produced colonies

Structure (SMILES): NC(=O)c1cn([C@@H]2O[C@H](CO)[C@@H](O)[C@H]2O)c2ncnc(N)c12 [sangivamycin]
- GFP expression in YB5 cells, adenosine analogues ([1]; 24 h): induced GFP expression in YB5 cells, but to a lesser extent than toyocamycin
- GFP expression in YB5 cells, adenosine analogues ([1]; 24 h, listed as Sangivamycin): weak GFP activation
- CDK9 inhibition [2]: direct CDK9 inhibition

Structure (SMILES): CC(/C=C/C(=O)NO)=C\[C@@H](C)C(=O)c1ccc(N(C)C)cc1 [trichostatin A]
- GFP+ cells ([1]; 200 nM, 24 h): about 6%

Structure (SMILES): Nc1ncnc2c1ccn2[C@@H]1O[C@H](CO)[C@@H](O)[C@H]1O [tubercidin]
- GFP expression in YB5 cells, adenosine analogues ([1]; 24 h): only sangivamycin induced GFP expression
